Results taken from patent publication EP4800018A1, “PAN-KRAS INHIBITOR AND USE THEREOF IN MEDICINES” (Betta Pharmaceuticals Co., Ltd., priority 2023, dated 2025).

Tests used:
[1] = tested on: KRAS-G12D mutant tumor cells AGS; assay: Cell Proliferation Inhibition Assay (AGS), Cell-titer GLO, 96 h; assay type: cell-based; conditions: Homo sapiens, AGS, 96 h, AGS cells, 96 h incubation, Cell-titer GLO; read-out: AGS(G12D)
How it was run: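 AGS cells (KRAS-G12D) grown in low-attachment plates were exposed to compound for 96 h at 37°C. Viability was read by CellTiter-Glo luminescence and converted to % inhibition against max and blank wells. IC50 came from curve fitting.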

[2] = molecular target: T1, KRAS G12D-cRAF (Homo sapiens, UniProt P01116, G12D); assay: Cellular KRAS G12D-cRAF Binding Inhibition Assay (NanoBRET, AD293 stable cells); assay type: cell-based; conditions: 3 h incubation, read-out: NanoBRET KRAS G12D
T1 construct: expressed in transfected cells
T1 sequence (P01116 1-188 isoform P01116-2 G12D): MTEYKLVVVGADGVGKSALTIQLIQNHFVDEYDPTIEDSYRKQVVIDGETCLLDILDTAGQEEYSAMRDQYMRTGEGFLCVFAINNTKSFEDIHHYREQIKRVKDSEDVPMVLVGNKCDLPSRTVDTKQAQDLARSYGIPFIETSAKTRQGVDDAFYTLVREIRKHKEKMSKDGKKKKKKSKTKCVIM
How it was run: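 AD293 cells stably expressing KRAS G12D-NanoLuc and cRAF RBD-HaloTag were seeded at 1×10^4 cells/well with NanoBRET 618 ligand overnight. BRET signal was converted to % inhibition of binding relative to max and blank wells, and IC50 came from curve fitting.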

[3] = tested on: KRAS-G12V mutant tumor cells SW620; assay: Cell Proliferation Inhibition Assay (SW620), Cell-titer GLO, 96 h; assay type: cell-based; conditions: Homo sapiens, SW-620, 96 h, SW620 cells, 96 h incubation, Cell-titer GLO; read-out: SW620(G12V)
How it was run: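 SW620 cells (1×10^3/well, low-attachment) were exposed to compound from 10000 to 0.03 nM (0.5% DMSO) for 96 h at 37°C. Viability was read by Cell-titer GLO luminescence. Inhibition was calculated relative to DMSO and blank wells, and IC50 obtained by curve fitting.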

[4] = PK Study of Compounds in Rats; assay type: in vivo, Male SD rats; conditions: mean; for AUC(0-t): read-out: AUC0-t; for Cmax: read-out: C0/Cmax
Protocol: The test compound was mixed with the vehicle (10% DMSO/5% Solutol/85% physiological saline), vortexed and sonicated to prepare a clear 0.5 mg/mL intravenous injection solution. The test compound was mixed with the vehicle (20% PEG400/10% Solutol/70% pH 4.5 acetate buffer), vortexed and sonicated to prepare a clear 1 mg/mL oral solution. Male SD rats aged 6 to 7 weeks were selected and administered the test compound via intravenous (IV) and oral (PO) routes, respectively. Whole blood samples were collected at 5 min, 15 min, 30 min, 1 h, 2 h, 4 h, 7 h, and 24 h for the intravenous route, and at 15 min, 30 min, 1 h, 2 h, 4 h, 7 h, and 24 h for the oral route. Drug concentrations were analyzed by LC-MS/MS method, and pharmacokinetic parameters were calculated using Phoenix WinNonlin software (Pharsight, USA).

[5] = molecular target: T2, KRAS G12V-cRAF (Homo sapiens, UniProt P01116, G12V); assay: Cellular KRAS G12V-cRAF Binding Inhibition Assay (NanoBRET, AD293 stable cells); assay type: cell-based; conditions: 3 h incubation, read-out: NanoBRET KRAS G12V
T2 construct: expressed in transfected cells
T2 sequence (P01116 1-188 isoform P01116-2 G12V): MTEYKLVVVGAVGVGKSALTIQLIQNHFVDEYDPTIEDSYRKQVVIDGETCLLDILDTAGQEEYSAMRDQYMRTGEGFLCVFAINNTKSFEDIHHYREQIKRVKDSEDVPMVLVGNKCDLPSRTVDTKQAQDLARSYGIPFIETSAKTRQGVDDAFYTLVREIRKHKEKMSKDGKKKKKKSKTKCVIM
How it was run: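 Live AD293 stable cells, NanoLuc donor with HaloTag NanoBRET 618 ligand acceptor added overnight. Inhibition percent from luminescence relative to max signal and medium blank; IC50 from curve fitting.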

[6] = PK Study of Compounds in Dogs; assay type: in vivo, Beagle dogs; conditions: mean; for Cmax: read-out: C0/Cmax
Protocol: The test compound was mixed with the vehicle (10% DMSO/5% Solutol/85% physiological saline), vortexed and sonicated to prepare a clear 1 mg/mL intravenous injection solution. The test compound was mixed with the vehicle (10% DMSO + 5% HS15 + 85% 10 mM aqueous citric acid solution), vortexed and sonicated to prepare a clear 0.6 mg/mL oral solution. Beagle dogs (two males, one female) were selected and administered the test compound via intravenous (IV) and oral (PO) routes, respectively. Whole blood samples were collected at 0 min, 5 min, 15 min, 30 min, 1 h, 2 h, 4 h, 6 h, 8 h, 12 h, 24 h, 48 h, and 72 h for the intravenous route, and at 0 min, 15 min, 30 min, 1 h, 2 h, 4 h, 6 h, 8 h, 12 h, 24 h, 48 h, and 72 h for the oral route. Drug concentrations were analyzed by LC-MS/MS method, and pharmacokinetic parameters were calculated using Phoenix WinNonlin software (Pharsight, USA).

[7] = male, SD, rat, whole blood, IV 1 mg/kg (n=3)
[8] = male, SD, rat, whole blood, PO 10 mg/kg (n=3)
[9] = both sexes, beagle, dog, whole blood, IV 1 mg/kg (n=3)
[10] = both sexes, beagle, dog, whole blood, PO 3 mg/kg (n=3)

- IC50 [1]: 0.42 nM
- IC50 [2]: 0.8 nM
- IC50 [3]: 0.15 nM
- F ([4]; PO 10 mg/kg vs IV 1 mg/kg (n=3)): 19.5
- clearance [4, 7]: 1.93 mL/min/kg
- half-life [4, 7]: 8.4 h
- AUC(0-t) [4, 7]: 7510 ng·h/mL
- Cmax [4, 7]: 4250 ng/mL
- Vd ([4]; male, SD, rat, whole blood, IV 1 mg/kg (n=3), read-out: Vss): 1.2 L/kg
- AUC(0-t) [4, 8]: 14600 ng·h/mL
- Cmax [4, 8]: 1370 ng/mL
- Tmax ([4]; male, SD, rat, whole blood, PO 10 mg/kg (n=3), read-out: Tmax): 4 h
- IC50 [5]: 5.4 nM
- F ([6]; PO 3 mg/kg vs IV 1 mg/kg (n=3)): 41.2
- AUC(0-t) [6, 9]: 16600 ng·h/mL
- clearance [6, 9]: 0.659 mL/min/kg
- half-life [6, 9]: 34.8 h
- Cmax [6, 9]: 2020 ng/mL
- Vd ([6]; both sexes, beagle, dog, whole blood, IV 1 mg/kg (n=3), read-out: Vss): 2.62 L/kg
- AUC(0-t) [6, 10]: 20500 ng·h/mL
- Tmax [6, 10]: 1.17 h
- Cmax [6, 10]: 608 ng/mL
Compound: CC1OCCCn2c(c3c4cc(ccc42)-c2csc(n2)CC(NC(=O)C2C(C)C2C)C(=O)N2NC(C(=O)OCC(C)(C)C3)C3CC2C3)-c2cc(N3CCN(C)CC3)cnc21 [Example 186, (1r,2R,3S)-2,3-dimethyl-N-((1^5S,6^4S,4S,Z)-1^5,10,10-trimethyl-1^2-(4-methylpiperazin-1-yl)-5,7-dioxo-1^8,1^9-dihydro-1^5H,1^7H-8-oxa-6^2,6^3-diaza-1(13,15)-pyrido[3',2':7,8][1,5]oxazonino[5,6-a]indola-2(4,2)-thiazola-6(2,4)-bicyclo[3.1.1]heptanacycloundecaphane-4-yl)cyclopropane-1-carbox amide]
